From patent US20200056988A1, “METHOD OF DETERMINING THE EFFICACY OF ANTIMICROBIALS” (Wisconsin Alumni Research Foundation, priority 2018, published 2020)

System: infection in critically ill and injured adult ICU subjects
Assay: Variation (standard deviation) of exhaled 13CO2/12CO2 breath delta value (BDV) as a marker of response to antimicrobial treatment
Type: in vivo, human
Settings: single ICU subject of FIG. 15, BAL culture positive for Aspergillus fumigatus; cefuroxime days 1 through 7, cefepime added after day seven
Method: The study was conducted as a multi-center prospective study, at four academic research hospitals, to assess exhaled ^13CO2/^12CO2 BDV as an indicator of infection in 20 critically ill and injured adult ICU subjects. Critically ill adult ICU subjects who were not suspected of having an infection at the time of ICU admission were enrolled as study subjects.
Exhaled breath samples were collected upon subject enrollment and every four hours thereafter until the subject was discharged home, transferred to a general care unit/status, or after seven days of breath sample collection, whichever came first. Each sample was collected in four-hour intervals, calculated from the initial sample time, with a window of ±1 hour. Samples collected outside of the specified time interval were still analyzed. […]
Breath samples were shipped to a central laboratory (Isomark, LLC, Madison, Wis.) within 48 hours of final collection from each subject. The breath samples were analyzed using the Canary™ device. The ^13CO2/^12CO2 ratio of each sample was determined from direct measurement and calculated using Pee Dee Belemnite (PDB) as a standard reference: […]
where BDV is expressed as parts per mil (‰). […] The delta over baseline (DOB) was then calculated by subtracting the baseline sample from subsequent samples as described: […]

Compound | mean variation of BDV
CO/N=C(\C(=O)N[C@@H]1C(=O)N2C(C(=O)[O-])=C(C[N+]3(C)CCCC3)CS[C@H]12)c1csc(N)n1 [cefepime] | 0.37 ‰
CO/N=C(\C(=O)N[C@@H]1C(=O)N2C(C(=O)O)=C(COC(N)=O)CS[C@H]12)c1ccco1 [cefuroxime] | 0.72 ‰
